From US20070231260A1, “Transporter-targeted methods of diagnosis and treatment” (priority 2005, published 2007) come the findings set out here.

This experiment relates to cells that overexpress MCT1. The experiment in a line: Cytotoxicity (GI50) of bromopyruvate in cells not expressing MCT1 (-TET) and induced to express MCT1 (+TET). The conditions noted are these: GI50, +TET vs -TET cells; FIG. 2. It counts as cell-based.

As for `O=C(O)C(=O)CBr` [bromopyruvate, Bromopyruvate], the “fold higher toxicity to cells that overexpress MCT1” value was “more than 20 times”.
